# Laboratory results reported in patent US8247211B2, “Glycopeptide antibiotics” (American Cyanamid Company, priority 2001, dated 2012).
# Numbered stars: 1 amine (or outer) side, 2 acyl side, 3 side chain; on linkers, the order of the positions; unused ones are H or OH. Square brackets hold non-standard residues; d marks the D form. Peptide text beside a SMILES is read from it. ξ: configuration not given here. X6 = N=C1NCC(CC(N[*:1])C(=O)[*:2])N1C1OC(CO)C(O)C(O)C1O; Tyr(3-NO2) = N[CH](Cc1ccc(O)c([N+](=O)[O-])c1)C(=O)O; X7 = N=C1NCC(CC(N[*:1])C(=O)[*:2])N1; ξPhe(βξ-Me) = CC(c1ccccc1)C(N)C(=O)O
# Assays:
# Experiment in all cases: In vitro antibacterial evaluation: minimum inhibitory concentration (MIC), broth dilution method
# Type in all cases: cell-based
# [1] = tested on: Enterococcus sp.; conditions: broth dilution, 18 hours at 35° C.
# Summary of the method: (§1)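 Susceptibility determined by NCCLS-recommended broth dilution (M7-A2), Muller-Hinton II […]. Concentration span 64-0.06 μg/mL, inoculum 5×10^5 CFU/mL. Isolates include strains resistant to methicillin, penicillin and/or vancomycin.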
# [2] = tested on: Streptococcus sp.; conditions: broth dilution, 18 hours at 35° C.
# Summary of the method: as §1
# [3] = tested on: Escherichia coli; conditions: broth dilution, 18 hours at 35° C.
# [4] = tested on: Staphylococcus sp.; conditions: strain SMITH GC 4543; broth dilution, 18 hours at 35° C.
# Summary of the method: as §1
# [5] = Enterococcus faecalis (GC 4553)
# [6] = Streptococcus agalactiae (GC 4564)
# [7] = Streptococcus pneumoniae (GC 1894)
# [8] = Streptococcus pyogenes (GC 4563)
MIC Enterococcus avium (GC 4558) [1] [µg/mL],MIC Enterococcus faecalis (ATCC 29212) [1] [µg/mL],MIC Enterococcus faecalis (GC 2242) [1] [µg/mL],MIC Enterococcus faecalis (GC 2691) [1] [µg/mL],MIC Enterococcus faecalis (GC 3059) [1] [µg/mL],MIC Enterococcus faecalis (GC 4552) [1] [µg/mL],MIC Enterococcus faecalis (GC 4553) [1] [µg/mL],MIC Enterococcus faecalis (GC 4554) [1] [µg/mL],MIC Enterococcus faecalis (GC 6189) [1] [µg/mL],MIC Enterococcus faecium (GC 2243) [1] [µg/mL],MIC Enterococcus faecium (GC 4556) [1] [µg/mL],MIC Enterococcus faecium (GC 4557) [1] [µg/mL],MIC Streptococcus agalactiae (GC 4564) [2] [µg/mL],MIC Streptococcus pneumoniae (ATCC 6301) [2] [µg/mL],MIC Streptococcus pneumoniae (GC 1894) [2] [µg/mL],MIC Streptococcus pneumoniae (GC 4565) [2] [µg/mL],MIC Streptococcus pyogenes (GC 4563) [2] [µg/mL],MIC Escherichia coli (ATCC 25922) [3] [µg/mL],MIC Escherichia coli (GC 4559) [3] [µg/mL],MIC Escherichia coli (GC 4560) [3] [µg/mL],Structure (SMILES),also measured
>64,>64,>64,>64,>64,>64,>64,>64,>64,>64,>64,>64,>64,>64,>64,>64,>64,>64,>64,>64,"CC(c1ccccc1)C1NC(=O)CNC(=O)C(CO)NC(=O)C(CC2CNC(=N)N2C2OC(CO)C(O)C(O)C2O)NC(=O)C(CC2CNC(=N)N2)NC(=O)C(Cc2ccc(O)c([N+](=O)[O-])c2)NC1=O (stereo not drawn) [Example 10, Cyclo[3-(2-iminoimidazolidin-4-yl)alanyl-3-(3-hexopyranosyl-2-iminoimidazolidin-4-yl)-alanylserylglycyl-β-methylphenylalanyl-3-nitrotyrosyl]] (cyclo(G[ξPhe(βξ-Me)][Tyr(3-NO2)][X7][X6]S); configuration not given here)",–
64,>64,64,>64,>64,>64,64,>64,>64,64,64,64,16,4,2,4,8,>64,>64,32,"CC(=O)Nc1cc(CC2NC(=O)C(C(C)c3ccccc3)NC(=O)CNC(=O)C(CO)NC(=O)C(C(O)C3CNC(=N)N3C3OC(CO)C(O)C(O)C3O)NC(=O)C(C(O)C3CNC(=N)N3)NC2=O)ccc1O (stereo not drawn) [Example 13, Cyclo[glycyl-β-methylphenylalanyl-3-acetamidotyrosyl-3-(2-iminoimidazolidin-4-yl)seryl-3-(3-hexopyranosyl-2-iminoimidazolidin-4-yl)serylseryl]]","MIC Enterococcus avium (GC 4558) ([1]; Enterococcus avium (GC 4558)): 64 µg/mL; MIC Enterococcus faecalis (ATCC 29212) ([1]; Enterococcus faecalis (ATCC 29212)): >64 µg/mL; MIC Enterococcus faecalis (GC 2242) ([1]; Enterococcus faecalis (GC 2242)): 64 µg/mL; MIC Enterococcus faecalis (GC 2691) ([1]; Enterococcus faecalis (GC 2691)): >64 µg/mL; MIC Enterococcus faecalis (GC 3059) ([1]; Enterococcus faecalis (GC 3059)): >64 µg/mL; MIC Enterococcus faecalis (GC 4552) ([1]; Enterococcus faecalis (GC 4552)): >64 µg/mL; MIC Enterococcus faecalis (GC 4553) [1, 5]: 64 µg/mL; MIC Enterococcus faecalis (GC 4554) ([1]; Enterococcus faecalis (GC 4554)): >64 µg/mL; MIC Enterococcus faecalis (GC 6189) ([1]; Enterococcus faecalis (GC 6189)): >64 µg/mL; MIC Enterococcus faecium (GC 2243) ([1]; Enterococcus faecium (GC 2243)): 64 µg/mL; MIC Enterococcus faecium (GC 4556) ([1]; Enterococcus faecium (GC 4556)): 64 µg/mL; MIC Enterococcus faecium (GC 4557) ([1]; Enterococcus faecium (GC 4557)): 64 µg/mL; MIC Staphylococcus aureus-SMITH (GC 4543) [4]: 64 µg/mL; MIC Streptococcus agalactiae (GC 4564) [2, 6]: 16 µg/mL; MIC Streptococcus pneumoniae (ATCC 6301) ([2]; Streptococcus pneumoniae (ATCC 6301)): 4 µg/mL; MIC Streptococcus pneumoniae (GC 1894) [2, 7]: 2 µg/mL; MIC Streptococcus pneumoniae (GC 4565) ([2]; Streptococcus pneumoniae (GC 4565)): 4 µg/mL; MIC Streptococcus pyogenes (GC 4563) [2, 8]: 8 µg/mL"
–,–,–,–,–,–,64,–,–,–,–,16,64,–,64,–,16,32,32,8,"CCCCCCC(=O)Nc1cc(CC2NC(=O)C(C(C)c3ccccc3)NC(=O)CNC(=O)C(CO)NC(=O)C(C(O)C3CNC(=N)N3C3OC(CO)C(O)C(O)C3O)NC(=O)C(C(O)C3CNC(=N)N3)NC2=O)ccc1O (stereo not drawn) [Example 16, Cyclo[glycyl-β-methylphenylalanyl-3-(heptanamido)tyrosyl-3-(2-iminoimidazolidin-4-yl)seryl-3-(3-hexopyranosyl-2-iminoimidazolidin-4-yl)serylseryl]]","MIC Enterococcus faecalis (GC 4553) [1, 5]: 64 µg/mL; MIC Enterococcus faecium (GC 4557) ([1]; Enterococcus faecium (GC 4557)): 16 µg/mL; MIC Staphylococcus aureus-SMITH (GC 4543) [4]: 64 µg/mL; MIC Streptococcus agalactiae (GC 4564) [2, 6]: 64 µg/mL; MIC Streptococcus pneumoniae (GC 1894) [2, 7]: 64 µg/mL; MIC Streptococcus pyogenes (GC 4563) [2, 8]: 16 µg/mL"
